Some test systems named below: M14; PC-3; NCI-H460; U-251; Malme-3M; SF-539; MDA-N; SNB-75; TK-10; MCF7; KM12; SF-268; K562; A498; DU-145; UO-31; SK-MEL-2; UACC-257; SK-OV-3; A549.
Common to all, as to assay: inhibition of tumour cell growth, NCI panel, 48 h

The results in this text go back to ChEMBL document CHEMBL1201862, “PubChem BioAssay data set” (2004).

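Each compound was tested at five concentrations against cells in 96-well plates for 48 hours. GI50 is the concentration that inhibits growth by half.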 Calls of active or inactive are those of the source. Cut-off read from the data, not from the text of the source: active = GI50 up to about 1.1 µM and inactive = higher.

Take `CCN(CC)CCNc1ccc2ncn3c4c(OC)ccc(O)c4c(=O)c1c23`: the GI50 with M14 was 13.6 µM (inactive); with PC-3, 10.9 µM (inactive); in the assay with NCI-H460, 0.764 µM (active); in the assay on U-251 it was 12.6 µM (inactive); in the assay with Malme-3M, 19.4 µM (inactive); in the assay with SF-539 it was 6.98 µM (inactive). The GI50 with MDA-N is 21.1 µM (inactive); with SNB-75, 46.3 µM (inactive); in the assay on TK-10 it was 33 µM (inactive); in the assay on MCF7 it was 3.52 µM (inactive); in the assay with KM12 it was 8.17 µM (inactive); with SF-268, 6.49 µM (inactive). In addition, the GI50 with K562 is 8.13 µM (inactive); in the assay with A498 it was 10 µM (inactive); in the assay with DU-145, 19.3 µM (inactive); in the assay with UO-31 it was 33.7 µM (inactive); in the assay with SK-MEL-2 it was > 100 µM (inactive); in the assay on UACC-257 it was > 100 µM (inactive). The results for the GI50 with SK-OV-3 and in the assay on A549 were 66.2 µM (inactive) and 2.86 µM (inactive), respectively.
With `S=C1NCN2CCN(CC2)CNC(=S)C(=S)NCN2CCN(CC2)CNC1=S`, the GI50 in the assay with M14 is 30.1 µM (inactive); with PC-3, 35.2 µM (inactive); with NCI-H460, 20.7 µM (inactive); in the assay on U-251 it was 37.7 µM (inactive); in the assay on Malme-3M, > 100 µM (inactive); with MDA-N, 67.8 µM (inactive). Besides, the GI50 in the assay with SNB-75 is > 100 µM (inactive); with TK-10, > 100 µM (inactive); in the assay with MCF7 it was 54.5 µM (inactive); with KM12, > 100 µM (inactive); in the assay with SF-268, 61.2 µM (inactive); in the assay on K562, 27.3 µM (inactive). Besides, the GI50 was > 100 µM (inactive) in the assay with A498; 36.8 µM (inactive) in the assay on DU-145; 25.6 µM (inactive) in the assay on UO-31; 43.2 µM (inactive) in the assay with SK-MEL-2; 42.7 µM (inactive) with UACC-257; > 100 µM (inactive) in the assay with SK-OV-3. Besides, the GI50 in the assay on A549 is 36.8 µM (inactive).
In the case of `COc1cc(NCCC2CCCCN2)c2ncccc2c1` (stereo not given), the GI50 is 21.5 µM (inactive) with M14; 74.5 µM (inactive) with PC-3; 39.7 µM (inactive) in the assay on NCI-H460; 56.4 µM (inactive) in the assay on U-251; 26.9 µM (inactive) in the assay with Malme-3M; > 100 µM (inactive) in the assay with SF-539. The GI50 in the assay on MDA-N is 36.3 µM (inactive); in the assay on SNB-75 it was 60.3 µM (inactive); in the assay with TK-10, > 73.6 µM (inactive); in the assay on MCF7, 0.31 µM (active); in the assay with KM12, 60.4 µM (inactive); with SF-268 it was > 92.7 µM (inactive). In addition, the GI50 with K562 is > 44.2 µM (inactive); in the assay with A498 it was 53.2 µM (inactive); with DU-145, > 76.9 µM (inactive); in the assay with UO-31 it was 57.1 µM (inactive); in the assay with SK-MEL-2 it was > 55.7 µM (inactive); with UACC-257 it was 19.4 µM (inactive). Also, the values for the GI50 in the assay with SK-OV-3 and in the assay on A549 were > 100 µM (inactive) and > 96.6 µM (inactive), respectively.
Regarding `CCOC(=O)C1CCCCN1C(=O)Cc1c[nH]c2ccccc12` (stereo not given), the GI50 is 63.4 µM (inactive) in the assay on M14; 31.7 µM (inactive) in the assay with PC-3; > 100 µM (inactive) with NCI-H460; 67.3 µM (inactive) in the assay on U-251; 57.4 µM (inactive) in the assay with Malme-3M; > 100 µM (inactive) with SF-539. For the same compound, the GI50 in the assay with MDA-N was 49.8 µM (inactive); with SNB-75 it was 40 µM (inactive); with TK-10, > 100 µM (inactive); in the assay on MCF7, 37.5 µM (inactive); with KM12 it was 41.3 µM (inactive); with SF-268, 45.2 µM (inactive). Moreover, the GI50 is 68.9 µM (inactive) with K562; 33.9 µM (inactive) in the assay with A498; 84.1 µM (inactive) in the assay with DU-145; 61.9 µM (inactive) in the assay on SK-MEL-2; 79.3 µM (inactive) with UACC-257; > 100 µM (inactive) in the assay on SK-OV-3. For the same compound, the GI50 in the assay with A549 was 55.2 µM (inactive).
On to `CC1OC(c2ccc3c(c2O)C(=O)C2=C(C3=O)C3(O)C(=O)CC(C)(O)CC3(O)C=C2)CC(O)C1O` (stereo not given), for which the GI50 in the assay on M14 is 16.1 µM (inactive); in the assay on PC-3 it was 23.3 µM (inactive); in the assay on NCI-H460, 24.2 µM (inactive); in the assay with U-251 it was 16.7 µM (inactive); with Malme-3M, 2.99 µM (inactive); with SF-539, 17.7 µM (inactive). The GI50 in the assay on MDA-N is 3.23 µM (inactive); with SNB-75, 18.2 µM (inactive); with TK-10 it was 15.1 µM (inactive); in the assay with MCF7 it was 2.79 µM (inactive); with KM12, 21.3 µM (inactive); in the assay on SF-268, 21.2 µM (inactive). Also, the GI50 was 2.7 µM (inactive) in the assay on K562; 18.2 µM (inactive) in the assay with A498; 15.6 µM (inactive) in the assay with DU-145; 17.1 µM (inactive) with UO-31; 20.5 µM (inactive) in the assay with SK-MEL-2; 15 µM (inactive) in the assay on UACC-257. Further, the results for the GI50 with SK-OV-3 and with A549 were 41.3 µM (inactive) and 26.3 µM (inactive), respectively.
As for `CC1CN(CCO)CCN1c1ccccc1` (stereo not given), the GI50 in the assay on M14, in the assay with PC-3, in the assay with NCI-H460, in the assay with U-251, in the assay on Malme-3M and with SF-539 was > 100 µM (inactive) in each case. The GI50 with MDA-N, with SNB-75, in the assay with TK-10, in the assay with MCF7, in the assay on KM12 and in the assay on SF-268 was > 100 µM (inactive) each time. In addition, the GI50 with K562, in the assay with A498, with DU-145, with UO-31, in the assay on SK-MEL-2 and in the assay on UACC-257 was > 100 µM (inactive) each time. The GI50 in the assay with SK-OV-3 and in the assay with A549 was > 100 µM (inactive) each time.
As for `CN(N=O)C(=O)N[C@H]1C(O)O[C@H](CO)[C@@H](O)[C@@H]1O` (stereo not given in full), the GI50 is > 750 µM (inactive) in the assay with M14; > 750 µM (inactive) in the assay with PC-3; 491 µM (inactive) with NCI-H460; 593 µM (inactive) with U-251; 600 µM (inactive) in the assay with Malme-3M; 612 µM (inactive) with SF-539. The GI50 in the assay with MDA-N is > 750 µM (inactive); with SNB-75 it was 484 µM (inactive); in the assay on TK-10, > 750 µM (inactive); in the assay with MCF7, 518 µM (inactive); in the assay with KM12 it was 625 µM (inactive); in the assay on SF-268 it was 608 µM (inactive). Further, the GI50 in the assay with K562 is 498 µM (inactive); in the assay on A498, 593 µM (inactive); in the assay on DU-145, > 750 µM (inactive); with UO-31, 658 µM (inactive); in the assay with SK-MEL-2 it was 647 µM (inactive); with UACC-257 it was 600 µM (inactive). Besides, the GI50 with SK-OV-3 and with A549 was 571 µM (inactive) throughout.
Turning to `C=C1CCC(O)C/C1=C/C=C1\CCCC2(C)C1CCC2C(C)CCCC(C)C` (stereo not given), the GI50 was 18 µM (inactive) in the assay with M14; 18.8 µM (inactive) in the assay with PC-3; 20.4 µM (inactive) in the assay on NCI-H460; 18.6 µM (inactive) in the assay on U-251; 18 µM (inactive) in the assay with Malme-3M; 20.1 µM (inactive) with SF-539. Also, the GI50 in the assay with MDA-N was 18 µM (inactive); with SNB-75, 17.4 µM (inactive); in the assay on TK-10 it was 12.3 µM (inactive); with MCF7 it was 12.9 µM (inactive); with KM12 it was 20.6 µM (inactive); in the assay on SF-268, 23 µM (inactive). Also, the GI50 with K562 is 21.2 µM (inactive); in the assay on A498, 21.3 µM (inactive); in the assay on DU-145 it was 20.9 µM (inactive); with UO-31, 14.6 µM (inactive); in the assay with SK-MEL-2 it was 18.6 µM (inactive); in the assay on UACC-257, 17 µM (inactive). The GI50 is 22.8 µM (inactive) in the assay on SK-OV-3 and 19.6 µM (inactive) in the assay on A549.
Turning to `CCO/C(Cc1ccc(Cl)cc1)=N/NC(N)=S`, the GI50 in the assay with M14, in the assay with PC-3, in the assay on NCI-H460, in the assay on U-251, in the assay on Malme-3M and in the assay with SF-539 was > 100 µM (inactive) in each case. The GI50 was > 100 µM (inactive) with MDA-N; > 100 µM (inactive) in the assay on SNB-75; > 100 µM (inactive) with TK-10; > 100 µM (inactive) in the assay with MCF7; > 100 µM (inactive) with KM12; 83 µM (inactive) in the assay on K562. In addition, the GI50 in the assay on A498 is > 100 µM (inactive); in the assay with DU-145, > 100 µM (inactive); in the assay on UO-31, 72.9 µM (inactive); with SK-MEL-2 it was > 100 µM (inactive); in the assay on UACC-257 it was > 100 µM (inactive); with SK-OV-3, > 100 µM (inactive). The GI50 with A549 is > 100 µM (inactive).
As to `N#CC(C#N)/N=C/c1ccncc1`, the GI50 in the assay on M14, with PC-3, in the assay on U-251, with Malme-3M, in the assay on SF-539 and in the assay on MDA-N was > 100 µM (inactive) each time. Further, the GI50 with SNB-75, in the assay with TK-10, with MCF7, with KM12, in the assay on SF-268 and with K562 was > 100 µM (inactive) in each case. For the same compound, the GI50 in the assay with A498 is 95.9 µM (inactive); with DU-145, > 100 µM (inactive); with SK-MEL-2, > 100 µM (inactive); with UACC-257, > 100 µM (inactive); in the assay on SK-OV-3, > 100 µM (inactive); in the assay with A549, > 100 µM (inactive).
